Structures are written as SMILES. A value given as a limit tells only on which side of the number the result lay.

In this assay the target is T1, recombinant human IKKb (Homo sapiens, UniProt O14920).
T1 sequence (O14920 1-756): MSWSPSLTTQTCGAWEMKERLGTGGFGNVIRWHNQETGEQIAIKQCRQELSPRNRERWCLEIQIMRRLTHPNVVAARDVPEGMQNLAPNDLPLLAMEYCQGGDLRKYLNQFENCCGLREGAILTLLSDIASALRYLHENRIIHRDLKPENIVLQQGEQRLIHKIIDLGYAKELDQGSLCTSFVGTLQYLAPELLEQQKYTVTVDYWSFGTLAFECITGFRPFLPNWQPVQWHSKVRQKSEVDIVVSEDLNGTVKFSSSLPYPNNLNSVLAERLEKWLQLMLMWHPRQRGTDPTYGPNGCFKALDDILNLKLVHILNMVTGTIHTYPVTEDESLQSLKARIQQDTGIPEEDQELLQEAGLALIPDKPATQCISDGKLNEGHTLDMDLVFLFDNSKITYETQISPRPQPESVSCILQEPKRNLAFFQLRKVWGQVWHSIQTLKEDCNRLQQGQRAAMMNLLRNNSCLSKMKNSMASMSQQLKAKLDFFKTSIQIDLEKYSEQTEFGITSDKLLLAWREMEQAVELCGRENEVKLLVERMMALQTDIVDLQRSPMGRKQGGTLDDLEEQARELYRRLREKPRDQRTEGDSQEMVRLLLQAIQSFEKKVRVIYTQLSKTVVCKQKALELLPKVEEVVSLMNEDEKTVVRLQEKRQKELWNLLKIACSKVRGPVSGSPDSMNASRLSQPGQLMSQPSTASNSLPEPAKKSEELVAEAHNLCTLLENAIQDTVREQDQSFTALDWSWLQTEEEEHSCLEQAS
As to the kind of experiment: IKK kinase assay: incorporation of radiolabeled ATP into biotin-peptide substrate derived from IkB-alpha. The assay is classed as biochemical. To be noted: purified recombinant human IKKb 25 nM, ATP 10 μM, 30 min at 30° C. How it is done: This example describes an assay that is useful in evaluating and selecting a compound that modulates IKK. The assay measures the incorporation of radiolabeled ^3P gATP into the Biotin-peptide kinase substrate, derived from the IkB-alpha sequence.
In a 40 ul volume, 26 ul of ADB diluted, purified recombinant human IKKb [25 nM] was mixed with 4 ul 10× concentration of test compounds, [usually 100 uM-0.003 uM], [10%] DMSO and incubated for 10 minutes at room temperature. The kinase reaction was initiated by the addition of 10 ul 4× substrate cocktail containing the peptide substrate [0 or 30 μM] ATP [10 μM], and ^3PgATP [2 uCi/r×n]. After 30 minutes of incubation at 30° C., the reaction was terminated by the transfer of 25 ul reaction sample to a phosphocellulose membrane/plate containing 150 ul 0.75% phosphoric acid.
On the following day, the free radionucleotides in the phosphocellulose membrane were washed under vacuum with 3×200 ul of 0.75% phosphoric acid. After the last wash membrane/plates were transferred to an adoptor plate and 70 ul of scintillation cocktail was added to each well. After four hours, the amount of radioactivity for each well was counted in a top counter.

Take `N#Cc1cccc(-c2cc3c(N)ncc(C(N)=O)c3s2)c1` [Compound 12, 4-Amino-2-(3-cyano-phenyl)-thieno[3,2-c]pyridine-7-carboxylic acid amide]: the half-inhibitory concentration (IC50) is less than 1000 nM.
